Measurements as given in the supplement of paper PMC10307832.

Assays:
Assay in all cases: relative viability (nuclei count vs DMSO), 5 days (fraction); higher = more cells survive
NCI-H441 = tested on: NCI-H441
Procedure, shortened: (§1)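 Each reported value is a median over duplicate plates. It expresses relative viability: treated-well nuclei count divided by vehicle-well nuclei count. Lung cancer cell lines in 1536-well plates were dosed by pin tool a day after seeding, alone with one drug or with a fixed anchor-drug dose plus five library-drug doses (not always all listed) in √10 steps, and nuclei were counted after 5 days.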

NCI-H1395 = tested on: NCI-H1395
Procedure, shortened: as §1

NCI-H2405 = tested on: NCI-H2405
Procedure, shortened: as §1

NCI-H2228 = tested on: NCI-H2228
Procedure, shortened: as §1

NCI-H2342 = tested on: NCI-H2342
Procedure, shortened: as §1

NCI-H1755 = tested on: NCI-H1755
Procedure, shortened: as §1

HCC-78 = tested on: HCC-78
Procedure, shortened: as §1

PC-3 [JPC-3] = tested on: PC-3 [JPC-3]
Procedure, shortened: as §1

NCI-H522 = tested on: NCI-H522
Procedure, shortened: as §1

HCC-827 = tested on: HCC-827
Procedure, shortened: as §1

NCI-H2009 = tested on: NCI-H2009
Procedure, shortened: as §1

LCLC-97TM1 = tested on: LCLC-97TM1
Procedure, shortened: as §1

NCI-H647 = tested on: NCI-H647
Procedure, shortened: as §1

NCI-H520 = tested on: NCI-H520
Procedure, shortened: as §1

NCI-H1792 = tested on: NCI-H1792
Procedure, shortened: as §1

ChaGo-K-1 = tested on: ChaGo-K-1
Procedure, shortened: as §1

NCI-H1355 = tested on: NCI-H1355
Procedure, shortened: as §1

LOU-NH91 = tested on: LOU-NH91
Procedure, shortened: as §1

NCI-H661 = tested on: NCI-H661
Procedure, shortened: as §1

NCI-H1993 = tested on: NCI-H1993
Procedure, shortened: as §1

SK-MES-1 = tested on: SK-MES-1
Procedure, shortened: as §1

LK-2 = tested on: LK-2
Procedure, shortened: as §1

NCI-H2085 = tested on: NCI-H2085
Procedure, shortened: as §1

C=C1C(=O)O[C@@H](CCCCCCCC)[C@@H]1C(=O)O [C-75] + Nc1nc2[nH]cc(CCc3ccc(C(=O)N[C@@H](CCC(=O)O)C(=O)O)cc3)c2c(=O)[nH]1 [Pemetrexed] (partner 0.2 µM)
relative viability (NCI-H441; first compound 0.08 µM): 0.295 | relative viability (NCI-H441; first compound 0.253 µM): 0.278 | relative viability (NCI-H441; first compound 0.8 µM): 0.283 | relative viability (NCI-H441; first compound 8 µM): 0.263 | relative viability (NCI-H1395; first compound 0.08 µM): 0.881 | relative viability (NCI-H1395; first compound 0.253 µM): 0.807 | relative viability (NCI-H1395; first compound 2.53 µM): 0.758 | relative viability (NCI-H1395; first compound 8 µM): 0.914 | relative viability (NCI-H2405; first compound 0.08 µM): 1 | relative viability (NCI-H2405; first compound 0.253 µM): 0.763 | relative viability (NCI-H2405; first compound 0.8 µM): 1.12 | relative viability (NCI-H2405; first compound 2.53 µM): 0.605 | relative viability (NCI-H2405; first compound 8 µM): 1.01 | relative viability (NCI-H2228; first compound 0.08 µM): 0.33 | relative viability (NCI-H2228; first compound 0.253 µM): 0.332 | relative viability (NCI-H2228; first compound 0.8 µM): 0.29 | relative viability (NCI-H2228; first compound 2.53 µM): 0.333 | relative viability (NCI-H2228; first compound 8 µM): 0.318 | relative viability (NCI-H2342; first compound 0.08 µM): 0.815 | relative viability (NCI-H2342; first compound 0.253 µM): 0.771 | relative viability (NCI-H2342; first compound 0.8 µM): 0.693 | relative viability (NCI-H2342; first compound 2.53 µM): 0.62 | relative viability (NCI-H2342; first compound 8 µM): 0.766 | relative viability (NCI-H1755; first compound 0.08 µM): 0.457 | relative viability (NCI-H1755; first compound 0.253 µM): 0.468 | relative viability (NCI-H1755; first compound 0.8 µM): 0.46 | relative viability (NCI-H1755; first compound 2.53 µM): 0.391 | relative viability (NCI-H1755; first compound 8 µM): 0.438 | relative viability (HCC-78; first compound 0.08 µM): 0.829 | relative viability (HCC-78; first compound 0.253 µM): 0.902 | relative viability (HCC-78; first compound 0.8 µM): 0.839 | relative viability (HCC-78; first compound 8 µM): 0.893 | relative viability (PC-3 [JPC-3]; first compound 0.08 µM): 1.07 | relative viability (PC-3 [JPC-3]; first compound 0.253 µM): 0.979 | relative viability (PC-3 [JPC-3]; first compound 0.8 µM): 0.81 | relative viability (PC-3 [JPC-3]; first compound 2.53 µM): 0.874 | relative viability (PC-3 [JPC-3]; first compound 8 µM): 1.14 | relative viability (NCI-H522; first compound 0.08 µM): 1.02 | relative viability (NCI-H522; first compound 0.253 µM): 0.76 | relative viability (NCI-H522; first compound 0.8 µM): 0.828 | relative viability (NCI-H522; first compound 2.53 µM): 0.869 | relative viability (NCI-H522; first compound 8 µM): 0.879 | relative viability (HCC-827; first compound 0.253 µM): 0.271 | relative viability (HCC-827; first compound 0.8 µM): 0.279 | relative viability (HCC-827; first compound 8 µM): 0.287 | relative viability (NCI-H2009; first compound 0.08 µM): 1.12 | relative viability (NCI-H2009; first compound 0.253 µM): 0.924 | relative viability (NCI-H2009; first compound 0.8 µM): 0.947 | relative viability (NCI-H2009; first compound 2.53 µM): 0.886 | relative viability (NCI-H2009; first compound 8 µM): 0.975 | relative viability (LCLC-97TM1; first compound 0.08 µM): 0.197 | relative viability (LCLC-97TM1; first compound 0.253 µM): 0.195 | relative viability (LCLC-97TM1; first compound 0.8 µM): 0.177 | relative viability (LCLC-97TM1; first compound 2.53 µM): 0.129 | relative viability (LCLC-97TM1; first compound 8 µM): 0.145 | relative viability (NCI-H647; first compound 0.08 µM): 0.181 | relative viability (NCI-H647; first compound 0.253 µM): 0.186 | relative viability (NCI-H647; first compound 0.8 µM): 0.167 | relative viability (NCI-H647; first compound 2.53 µM): 0.171 | relative viability (NCI-H647; first compound 8 µM): 0.128 | relative viability (NCI-H520; first compound 0.08 µM): 0.62 | relative viability (NCI-H520; first compound 0.253 µM): 0.669 | relative viability (NCI-H520; first compound 0.8 µM): 0.643 | relative viability (NCI-H520; first compound 2.53 µM): 0.578 | relative viability (NCI-H520; first compound 8 µM): 0.55 | relative viability (NCI-H1792; first compound 0.08 µM): 0.816 | relative viability (NCI-H1792; first compound 0.253 µM): 0.92 | relative viability (NCI-H1792; first compound 0.8 µM): 0.882 | relative viability (NCI-H1792; first compound 2.53 µM): 0.481 | relative viability (NCI-H1792; first compound 8 µM): 0.678 | relative viability (ChaGo-K-1; first compound 0.08 µM): 0.265 | relative viability (ChaGo-K-1; first compound 0.253 µM): 0.259 | relative viability (ChaGo-K-1; first compound 0.8 µM): 0.239 | relative viability (ChaGo-K-1; first compound 2.53 µM): 0.243 | relative viability (ChaGo-K-1; first compound 8 µM): 0.254 | relative viability (NCI-H1355; first compound 0.08 µM): 1.01 | relative viability (NCI-H1355; first compound 0.253 µM): 1.04 | relative viability (NCI-H1355; first compound 0.8 µM): 1.05 | relative viability (NCI-H1355; first compound 2.53 µM): 1.02 | relative viability (NCI-H1355; first compound 8 µM): 0.974 | relative viability (LOU-NH91; first compound 0.08 µM): 0.308 | relative viability (LOU-NH91; first compound 0.253 µM): 0.362 | relative viability (LOU-NH91; first compound 0.8 µM): 0.386 | relative viability (LOU-NH91; first compound 8 µM): 0.378 | relative viability (NCI-H661; first compound 0.08 µM): 0.919 | relative viability (NCI-H661; first compound 0.253 µM): 0.925 | relative viability (NCI-H661; first compound 0.8 µM): 0.856 | relative viability (NCI-H661; first compound 2.53 µM): 0.783 | relative viability (NCI-H661; first compound 8 µM): 0.881 | relative viability (NCI-H1993; first compound 0.08 µM): 0.564 | relative viability (NCI-H1993; first compound 0.253 µM): 0.716 | relative viability (NCI-H1993; first compound 0.8 µM): 0.541 | relative viability (NCI-H1993; first compound 2.53 µM): 0.652 | relative viability (NCI-H1993; first compound 8 µM): 0.478 | relative viability (SK-MES-1; first compound 0.08 µM): 0.97 | relative viability (SK-MES-1; first compound 0.253 µM): 0.911 | relative viability (SK-MES-1; first compound 0.8 µM): 0.839 | relative viability (SK-MES-1; first compound 2.53 µM): 0.766 | relative viability (SK-MES-1; first compound 8 µM): 0.919 | relative viability (LK-2; first compound 0.08 µM): 0.214 | relative viability (LK-2; first compound 0.253 µM): 0.301 | relative viability (LK-2; first compound 0.8 µM): 0.215 | relative viability (LK-2; first compound 2.53 µM): 0.2 | relative viability (LK-2; first compound 8 µM): 0.246 | relative viability (NCI-H2085; first compound 0.08 µM): 0.875 | relative viability (NCI-H2085; first compound 0.253 µM): 0.738 | relative viability (NCI-H2085; first compound 0.8 µM): 0.857 | relative viability (NCI-H2085; first compound 2.53 µM): 0.788 | relative viability (NCI-H2085; first compound 8 µM): 0.902
